Data on two compounds can be found in patent US20020155479A1, “Expression cloning method” (Whitehead Institute for Biomedical Research, priority 1999, published 2002).

Test [1] deals with GLUT4 at the plasma membrane of CHO cells. Briefly: FACS-based assay of the proportion of GLUT4 reporter at the cell surface, CHO cells. Details: species or system Chinese Hamster. The protocol:
(§1) Confluent cells were reseeded on the indicated day of differentiation to six well plates (Coming, Costar #3506) one day before use in experiments, and were starved in DMEM without fetal bovine serum for at least 3 hours before insulin stimulation. Insulin was generally used at 160 nM; occasionally it was used at 80 nM or 200 nM and no difference was noted between these concentrations in either 3T3-L1 or CHO cells. Insulin was added directly to the wells from a 100×stock. After treatment in the presence or absence of insulin for the times indicated in each figure, cells were quickly transferred to […] and washed with cold phosphate buffered saline (PBS) containing 0.9 mM Ca^++ and 0.5 mM Mg^++ (PBS++). All subsequent steps were carried out at 4° C., and staining of externalized myc epitope was done on adherent cells. Cells were incubated with a 1:200 dilution of anti-myc (9E10) ascites or using 25 μg/ml purified 9E10 in PBS++, 2% bovine serum albumin (BSA), 4% donkey serum for 1.5 hours. Cells were then washed twice in PBS++, for 5 minutes each time. They were then incubated 45 minutes in 12.5 to 25 μg/ml R-phycoerythrin conjugated donkey F(ab′)2 anti-mouse IgG secondary antibody, diluted in PBS++, 2% BSA, 4% donkey serum. Cells were rinsed twice in PBS++, then washed three times in PBS++ for 10 minutes each time, and were resuspended by gentle scraping in PBS++, 2% BSA or PBS++, 5% fetal bovine serum for flow cytometry. For experiments involving insulin removal, cells were chilled as above after insulin stimulation, then washed twice with 5 mM sodium acetate, 150 mM NaCl, pH 4.0 (Kao, A. W., et al., 1998, J Biol Chem 273:25450-7; Yang., J., et al., 1992, J Biol Chem 267:10393-9). Cells were rewarmed in 37° C. DMEM for the times indicated, restimulated or not with insulin, and then returned to 4° C. and chilled with cold PBS++ before staining as above.
(§2) Flow cytometry was done on FACScan or FACSCalibur cytometers (Becton-Dickinson). Appropriate compensation between the FL1 and FL2 channels was set using uninfected (GFP-negative) cells or cells stained with PE only (e.g. using a PE-conjugated anti-transferrin receptor antibody; Pharmingen). […] For each sample, data from ≧10,000 cells were collected. Median fluorescence intensities were used for quantification, since this measure of central tendency is least sensitive to outliers. For each sample, the PE and GFP fluorescence specifically attributable to the presence of the GLUT4 reporter were determined by subtracting background fluorescences, measured using control unstained cells and cells not expressing the reporter, respectively. These control cells were treated with the same conditions (e.g., type of serum and media, amino acid concentrations) used for the experimental cells. The ratio of fluorescence intensities plotted on the vertical axes of many figures is a relative, not absolute, measure of the proportion of GLUT4 at the cell surface. The scales are numbered arbitrarily and are not intended to permit comparison in absolute terms of data obtained in different experiments. In some of the kinetic studies (FIG. 26), the data were subjected to a simple smoothing operation. This consisted of calculating (0.25ra1—0.5rc+0.25rc+1), where r is the ratio of specific fluorescences for timepoint t. This calculated value was used for timepoints t=2 to ten−1, where n is the total number of timepoints. For the last time point t=n, (0.33rc1+0.67r1) was calculated. Basal values of r (r1) were unchanged.
To measure GLUT4 trafficking at the surface of CHO cells, CHO cells expressing the murine ecotropic retroviral receptor were infected with a retrovirus carrying the GLUT4 reporter, and FACS was utilized to isolate cells falling within a narrow range of GFP fluorescence intensities. Upon insulin stimulation of these cells, externalization of the GLUT4 reporter was again noted, as detected by flow cytometry. […]

Test [2] has as its system GLUT4 at the plasma membrane of 3T3-L1 cells. The test is described as follows: FACS-based assay of the proportion of GLUT4 reporter at the cell surface, 3T3-L1 cells. Details: species or system murine. The protocol:
as §1, §2
To assay changes in the proportion of GLUT4 present at the plasma membrane, a cDNA encoding a GLUT4 reporter protein was constructed. This protein contains seven c-myc epitope tags in the first exofacial loop of GLUT4, and GFP fused in-frame at the carboxy terminus. […] An anti-myc monoclonal antibody, followed by a phencoerythrin (PE)-conjugated secondary antibody, was used to detect reporter protein present at the surface of living cells. […]

Test [3] relates to GLUT4 reporter in AML12 hepatocyte cell line. Briefly: GLUT4 reporter translocation in AML12 hepatocyte cell line. Format: cell-based. To be noted: AML12 cells; data not shown.
For test [4], the system named is GLUT4 at the cell surface of adipocytes. To be noted: <10% in the absence of insulin; cited from earlier work.
The test system of test [5] is GLUT4 at the cell surface of NIH 3T3 cells. The test is described as follows: FACS-based assay of the proportion of GLUT4 reporter at the cell surface, NIH 3T3 cells. The settings on record: NIH 3T3 cells expressing the GLUT4 reporter. The protocol:
Confluent cells were reseeded on the indicated day of differentiation to six well plates (Coming, Costar #3506) one day before use in experiments, and were starved in DMEM without fetal bovine serum for at least 3 hours before insulin stimulation. Insulin was generally used at 160 nM; occasionally it was used at 80 nM or 200 nM and no difference was noted between these concentrations in either 3T3-L1 or CHO cells. Insulin was added directly to the wells from a 100×stock. […]
Flow cytometry was done on FACScan or FACSCalibur cytometers (Becton-Dickinson). […] Median fluorescence intensities were used for quantification, since this measure of central tendency is least sensitive to outliers. For each sample, the PE and GFP fluorescence specifically attributable to the presence of the GLUT4 reporter were determined by subtracting background fluorescences, measured using control unstained cells and cells not expressing the reporter, respectively. […] The ratio of fluorescence intensities plotted on the vertical axes of many figures is a relative, not absolute, measure of the proportion of GLUT4 at the cell surface. […] This consisted of calculating (0.25ra1—0.5rc+0.25rc+1), where r is the ratio of specific fluorescences for timepoint t. This calculated value was used for timepoints t=2 to ten−1, where n is the total number of timepoints. For the last time point t=n, (0.33rc1+0.67r1) was calculated. […]

Test [6] concerns GLUT4 in the plasma membrane fraction of 3T3-L1 cells. The test is described as follows: Subcellular fractionation and immunoblotting of GLUT4 in plasma membrane fraction, 3T3-L1 cells. Format: cell-based, murine. The source says: Four 10 cm plates of 3T3-L1 adipocytes were used per condition to isolate low density microsomal and plasma membrane fractions for FIG. 17B. Eight and ten plates per condition were used to isolate low density microsomes for analysis by sucrose density gradient centrifugation (FIG. 17C) and in vesicle immunopurification experiments (FIG. 17D), respectively. Five plates of adipocytes and ten plates of preadipocytes were used per condition in experiments presented in FIGS. 19B and 20B, respectively. For experiments presented in FIGS. 17B and 17D cells were serum starved overnight, treated with the presence or absence of insulin (160 nM, 10 min.), then transferred to 4° C. and washed with cold PBS++. For the vesicle immunopurification (FIG. 17D) cells were starved overnight, then transferred to 4° C. and washed with cold PBS++ without insulin stimulation. For kinetic studies (FIGS. 19B), 480 nM insulin was used (added from a prewarmed 3×stock) in order to maximally and simultaneously stimulate all of the cells on each 10 cm dish. Cell were transferred to 4° C. and washed with cold PBS++ at the indicated times. In all cases, cells were next washed once with cold 250 mM sucrose, 10 mM Tris pH 7.4, 0.5 mM EDTA (Buffer A). Cells were resuspended by scraping in cold Buffer A with Complete protease inhibitors (Roche), then homogenized using 16 strokes (4 plates) or 25 strokes (8 plates) in a Dounce-type teflon tissue grinder (Kontes #22, VWR). All subsequent steps were performed at 4° C. […]
The supernatant from the initial centrifugation was recentrifuged at 19,000 rpm in an SS-34 rotor (43,000×g) for 30 minutes. […] Equal volumes of each fraction were analyzed by SDS-PAGE and immunoblotting, and the total protein content in each fraction was determined using the micro-BCA kit (Pierce). In experiments where LDM and PM fractions were analyzed directly (without sedimentation of the LDM), total protein content was first determined and then equal amounts of protein were analyzed by SDS-PAGE and immunoblotting.

Where [7] appears, read: 3T3-L1 preadipocytes and adipocytes.
Setting [8] is: all days of 3T3-L1 differentiation, 80 nM insulin.

Regarding `CO[C@H]1C[C@@H]2CC[C@@H](C)[C@@](O)(O2)C(=O)C(=O)N2CCCC[C@H]2C(=O)O[C@H]([C@H](C)C[C@@H]2CC[C@@H](O)[C@H](OC)C2)CC(=O)[C@H](C)/C=C(\C)[C@@H](O)[C@@H](OC)C(=O)[C@H](C)C[C@H](C)/C=C/C=C/C=C/1C` [rapamycin, reference compound], the “change in amount of GLUT4 reporter protein (GFP fluorescence)” value in test [1] (CHO cells, after rapamycin treatment, data not shown) is at most 10%. The “decrease in amount of GLUT4 reporter per cell (GFP fluorescence)” value in test [2] (3T3-L1 adipocytes, after rapamycin treatment, data not shown) was at most 10%.

As for insulin, in test [1] (CHO cells), the “time at which steady-state level of cell surface GLUT4 is reached” value is given as “about 15 minute” and the “time of peak plasma membrane GLUT4 after insulin addition” value is recorded as “about 5 minute”. In addition, in test [1] (CHO cells cultured in DMEM), the “peak fraction of GLUT4 at the cell surface relative to unstimulated cells” value was found to be 5.5 fold, the “time of peak GLUT4 externalization after insulin addition” value is given as “four to five” and the “time to steady-state after insulin addition” value is reported as “twenty”. Also, the “part of the increase eliminated in the subsequent decrease” value in test [1] (CHO cells cultured in DMEM, several experiments) is recorded as 50% to 60. For the same compound, the “overshoot of the final, steady-state proportion of GLUT4 at the cell surface” value in test [1] (CHO cells cultured in F12 medium) is listed as “no overshoot”. Besides, in test [1] (CHO cells, peak after insulin addition), the “increase in plasma membrane GLUT4” value is listed as “about 5 fold”. Also, the “shift of the population upward along the PE (myc) axis” value in test [1] (confluent CHO cells expressing the GLUT4 reporter, FIG. 17F) is given as about 5 fold. In test [3], the “insulin-stimulated translocation of the GLUT4 reporter” value was “minimal translocation” and the “overshoot of the steady-state response” value is recorded as “no overshoot”. In addition, the “proportion of GLUT4 at the cell surface in the presence of insulin” value in test [4] is 35-50%. Also, the “increase in the proportion of GLUT4 at the cell surface” value in test [5] was “twofold”. Moreover, the “subsequent decrease to steady-state, of peak response” value in test [2] (3T3-L1 adipocytes, FIG. 19A) is recorded as about 20%. In addition, the “peak response over basal” value in test [2] (3T3-L1 adipocytes, average of Day 8 and 10, FIG. 19A) came to 5.4 fold. For the same compound, in test [2] (setting [7]), the “time at which steady-state level of cell surface GLUT4 is reached” value is listed as “about 15 minute” and the “time of peak plasma membrane GLUT4 after insulin addition” value is reported as “about 5 minute”. For the same compound, in test [2] (3T3-L1 preadipocytes and adipocytes, peak after insulin addition), the “increase in plasma membrane GLUT4” value is listed as “about 5 fold”. The “increase in cell-surface GLUT4” value in test [2] (3T3-L1 preadipocytes, 5 minutes after insulin addition) was “fourfold”. In test [2] (setting [8]), the “fall of the fraction of GLUT4 on the plasma membrane after the peak” value was 20% to 40, the “time of greatest proportion of GLUT4 on the plasma membrane after insulin addition” value was “four to five” and the “time to steady-state after insulin addition” value fell in the range of 15 to 20 min. The “increase in the fraction of GLUT4 present at the plasma membrane” value in test [2] (confluent 3T3-L1 preadipocytes cultured in 10% calf serum or 10% fetal bovine serum, 5 minutes) is recorded as “four-fold”. Moreover, in test [6] (3T3-L1 adipocytes, native GLUT4 and reporter protein, insulin 160 nM, 10 min, densitometry of several experiments), the “increases in the plasma membrane fraction (insulin/basal)” value is on record as 5- to 10 fold. Moreover, in test [6] (3T3-L1 preadipocytes expressing the GLUT4 reporter), the “time of peak response of GLUT4 reporter in the PM fraction after insulin addition” value turned out to be 8 min. Moreover, the “time of peak GLUT4 in the PM fraction after insulin addition” value in test [6] (endogenous GLUT4, uninfected 3T3-L1 adipocytes, 480 nM insulin) came out at 7 min.
